Patent US20080255143A1, “Inhibitors of Akt Activity” (SMITHKLINE BEECHAM CORPORATION, priority 2003, published 2008)
Structures can show the parent of a compound that is named as a salt.

How the values were obtained:
Format in all cases: biochemical
Settings in all cases: catalytic domain, 10 nM activated enzyme, 4 uM ATP, 8 uM peptide, 40 minutes at room temperature
delta-PH AKT2 = target: T1, delta-PH AKT2 (Homo sapiens, UniProt P31751); assay: AKT enzyme assay (substrate phosphorylation, SPA), AKT2
T1 construct: His-tagged AKT2 (aa 138-481) and His-tagged AKT3 (aa 135-479) were isolated; His; made in house; host or cells: insect cells (only by 'in a similar fashion' to AKT1)
Method: (§1) His-tagged AKT2 (aa 138-481) and His-tagged AKT3 (aa 135-479) were isolated and purified in a similar fashion.
(§2) Compounds of the present invention were tested for AKT 1, 2, and 3 protein serine kinase inhibitory activity in substrate phosphorylation assays. This assay examines the ability of small molecule organic compounds to inhibit the serine phosphorylation of a peptide substrate. The substrate phosphorylation assays use the catalytic domains of AKT 1, 2, or 3. […] Substrate phosphorylation was detected by the following procedure:
(§3) Assays were performed in 384 well U-bottom white plates. […] The reaction was stopped by the addition of 50 ul SPA bead mix (Dulbecco's PBS without Mg^2+ and Ca^2+, 0.1% Triton X-100, 5 mM EDTA, 50 uM ATP, 2.5 mg/ml Streptavidin-coated SPA beads.) The plate was sealed, the beads were allowed to settle overnight, and then the plate was counted in a Packard Topcount Microplate Scintillation Counter (Packard Instrument Co., Meriden, Conn.).
(§4) The data for dose responses were plotted as % Control calculated with the data reduction formula 100*(U1-C2)/(C1-C2) versus concentration of compound where U is the unknown value, C1 is the average control value obtained for DMSO, and C2 is the average control value obtained for 0.1M EDTA. […]

delta-PH AKT1 = target: T2, delta-PH AKT1 (Homo sapiens, UniProt P31749); assay: AKT enzyme assay (substrate phosphorylation, SPA), AKT1
T2 construct: Insect cells expressing His-tagged AKT1 (aa 136-480) were lysed; His; made in house; host or cells: insect cells
Method: Insect cells expressing His-tagged AKT1 (aa 136-480) were lysed in 25 mM HEPES, 100 mM NaCl, 20 mM imidazole; pH 7.5 using a polytron (5 mLs lysis buffer/g cells). Cell debris was removed by centrifuging at 28,000×g for 30 minutes. The supernatant was filtered through a […] filter then loaded onto a nickel-chelating column pre-equilibrated with lysis buffer. The column was washed with 5 column volumes (CV) of lysis buffer then with 5 CV of 20% buffer B, where buffer B is 25 mM HEPES, 100 mM NaCl, 300 mM imidazole; pH 7.5. His-tagged AKT1 (aa 136-480) was eluted with a 20-100% linear gradient of buffer B over 10 CV. His-tagged AKT1 (136-480) eluting fractions were pooled and diluted 3-fold with buffer C, where buffer C is 25 mM HEPES, pH 7.5. […]
Compounds of the present invention were tested for AKT 1, 2, and 3 protein serine kinase inhibitory activity in substrate phosphorylation assays. […] Substrate phosphorylation was detected by the following procedure:
as §3, with “Conn.). […]” for “Conn.).”

delta-PH AKT3 = target: T3, delta-PH AKT3 (Homo sapiens, UniProt Q9Y243); assay: AKT enzyme assay (substrate phosphorylation, SPA), AKT3
T3 construct: His-tagged AKT2 (aa 138-481) and His-tagged AKT3 (aa 135-479) were isolated; His; made in house; host or cells: insect cells (only by 'in a similar fashion' to AKT1)
Method: as §1, §2, §3, §4

T3 sequence (Q9Y243 135-479): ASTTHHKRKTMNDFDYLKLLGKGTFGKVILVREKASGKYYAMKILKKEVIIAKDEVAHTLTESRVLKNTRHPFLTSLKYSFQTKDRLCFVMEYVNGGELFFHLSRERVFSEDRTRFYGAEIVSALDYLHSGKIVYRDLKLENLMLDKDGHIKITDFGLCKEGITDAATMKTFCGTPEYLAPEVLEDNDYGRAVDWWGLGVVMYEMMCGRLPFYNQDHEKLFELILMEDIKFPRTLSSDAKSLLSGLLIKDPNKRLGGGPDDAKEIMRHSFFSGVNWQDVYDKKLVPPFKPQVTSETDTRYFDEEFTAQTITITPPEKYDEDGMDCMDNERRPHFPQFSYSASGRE
T1 sequence (P31751 138-481): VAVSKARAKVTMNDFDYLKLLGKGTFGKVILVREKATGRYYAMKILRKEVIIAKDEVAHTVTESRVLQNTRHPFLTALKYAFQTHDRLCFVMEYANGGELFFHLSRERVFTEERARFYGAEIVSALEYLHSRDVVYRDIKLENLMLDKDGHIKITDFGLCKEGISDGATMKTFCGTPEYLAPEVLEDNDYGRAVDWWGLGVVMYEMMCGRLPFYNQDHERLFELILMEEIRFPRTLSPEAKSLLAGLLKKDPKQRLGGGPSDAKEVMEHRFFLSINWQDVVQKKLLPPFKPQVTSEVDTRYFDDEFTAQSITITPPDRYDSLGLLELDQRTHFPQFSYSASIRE
T2 sequence (P31749 136-480): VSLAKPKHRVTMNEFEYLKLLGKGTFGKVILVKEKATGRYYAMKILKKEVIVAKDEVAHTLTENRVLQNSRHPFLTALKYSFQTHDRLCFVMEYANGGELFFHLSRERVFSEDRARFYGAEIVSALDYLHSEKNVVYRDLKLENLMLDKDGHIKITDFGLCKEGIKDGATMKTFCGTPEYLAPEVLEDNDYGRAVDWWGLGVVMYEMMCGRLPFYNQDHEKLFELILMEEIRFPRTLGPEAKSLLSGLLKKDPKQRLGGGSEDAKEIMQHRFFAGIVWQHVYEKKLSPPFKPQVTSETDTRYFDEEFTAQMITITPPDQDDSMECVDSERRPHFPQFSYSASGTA

IC50 (delta-PH AKT2): 0.038 µM
IC50 (delta-PH AKT1): 0.069 µM
IC50 (delta-PH AKT3): 0.032 µM
SMILES: CCn1c(-c2nonc2N)nc2c(-c3cccc(Cl)c3)ncc(NCCCNC[C@H](O)CO)c21 [Example 236, (S)-3-[3-[2-(4-amino-furazan-3-yl)-4-(3-chloro-phenyl)-1-ethyl-1H-imidazo[4,5-c]pyridin-7-ylamino]-propylamino]-propane-1,2-diol trifluoroacetate]
